Assay results from paper PMC11354720, “Assessing the Efficacy of Protease Inactivation for the Preservation of Bioactive Amphibian Skin Peptides” (International Journal of Molecular Sciences, 2024).
Read-outs that look alike come from different tables or passages of the source. Where a SMILES comes first, the peptide text is derived from it. Bridges are numbered along the chain shown (N, C = ends). Where no end group is shown, it is not given here.

System: proteases in Pelophylax esculentus skin secretion
Format: in vitro ADME
Conditions: for Efficiency of the reagent in deactivating proteases in amphibian skin secretions: comparison of HCl 1%, CH3OH, HCOOH 1%, PMSF 0.1 and 1.0 mM by preservation of nine intact peptides; for Proteoforms, %: sum of all proteolytic forms; for Proteoforms, % / Intact, % / Oxidized, %: LC-HRMS; for Intact, %: one frog per sample; for Oxidized, %: Met oxidized to methionine sulfoxide
Procedure: The inhibitory capacity of methanol and hydrochloric and formic acids, as well as PMSF at the minimum and maximum concentrations traditionally used in proteomics (0.1–1.0 mM), was compared via mass spectrometric monitoring of intact and proteolytic forms of nine peptides in five samples of Pelophylax esculentus secretions (samples 1–5).
Table 2 presents quantitative data for each of the nine peptides in Table 1, showing the percentage ratio of the intact (original) form of the peptide, the oxidized form (in the presence of methionine in the sequence), and the resulting proteolytic forms: products of the action of the remaining non-deactivated proteases. The full list of the detected proteolytic forms is included into the supporting material. The presence of one or another proteolytic form for each peptide in each of the five samples was determined by observing the coincidence of their exact experimental mass with the calculated one (within 0.5 ppm according to the mass spectra), as well as the coincidence of their sequences (tandem mass spectra data).
When calculating the data in Table 2, the total amount of intensities of all its formed forms in the mass spectra was taken as 100% for each peptide. To calculate the content in each of the samples of the intact, oxidized (if any), or proteolytic form of each of the nine peptides, the sum of the intensities of the chromatographic peaks of its multicharged ions, exactly corresponding to the values of the polyprotonated molecules of each of the forms, was used. The line “Proteoforms, %” took into account the sum of all proteolytic forms of a particular peptide for each of the five samples. The values of the intensities of each of the forms (intact, oxidized, and proteolytic) obtained in this way were summed up and, in relation to their resulting sum, the percentage content of each of the three forms in Table 2 was calculated for each of the five samples with different reagents.
The skin secretions of five sexually mature female specimens of the same size of Pelophylax esculentus, caught within the Moscow city limits, were obtained via mild electro-stimulation of the skin glands using a laboratory electro-stimulator [15, 51]. The “milking” parameters were as follows: signal frequency 50 Hz, pulse duration 3 ms, voltage 12 V, total stimulation time 40 s. The secretion was washed off with deionized water into separate containers, to which the following reagents were immediately added individually: —HCl to final concentration 1% (sample 1); —CH3OH (sample 2); —HCOOH to final concentration 1% (sample 3); —0.1 mM PMSF (sample 4 in DMSO); —1.0 mM PMSF (sample 5 in DMSO). All samples were centrifuged for 15 min at 3 000 rpm, filtered through removable membrane filters (PTFE 0.45 μm), and lyophilized. The storage temperature was −26 °C. All five individuals were immediately returned to their place of capture after the procedure.
Mass spectra were obtained on an Orbitrap ID-X high-resolution mass spectrometer (Thermo Scientific, Waltham, MA, USA) coupled to an LC-30 Nexera liquid chromatograph (Shimadzu, Kyoto, Japan) in LC-HRMS mode. An HPLC system consisted of two LC-30AD chromatographic pumps, a DGU-5A vacuum degasser, a SIL-30AC autosampler, an STO-20A column thermostat, and a CBM-20A system controller. The components of the secretions were separated on an XDB-C18 column (Agilent, Santa Clara, CA, USA) with a length of 100 mm and phase particle size of 1.8 μm. Gradient chromatography was performed using the following solutions: A—0.1% formic acid solution in deionized water (Milli-Q, Millipore, Molsheim, France); B—0.1% formic acid solution in acetonitrile containing 2% deionized water. All lyophilized samples were dissolved in phase B prior to the analysis. Injection volume was set to 0.1 µL. […]

[1] = sample 1: HCl final concentration 1%, all forms = 100%
[2] = sample 1: aqueous P. esculentus skin secretion, HCl added to final concentration 1%, sum of intensities of all forms of the peptide = 100%
[3] = sample 2: CH3OH, all forms = 100%
[4] = sample 2: aqueous P. esculentus skin secretion with CH3OH added, all forms = 100%
[5] = sample 3: HCOOH final concentration 1%, all forms = 100%
[6] = sample 3: aqueous P. esculentus skin secretion, HCOOH added to final concentration 1%, all forms = 100%
[7] = sample 4: PMSF 0.1 mM (in DMSO), all forms = 100%
[8] = sample 4: aqueous P. esculentus skin secretion, PMSF 0.1 mM (in DMSO), all forms = 100%
[9] = sample 5: PMSF 1.0 mM (in DMSO), all forms = 100%
[10] = sample 5: aqueous P. esculentus skin secretion, PMSF 1.0 mM (in DMSO), all forms = 100%

| Compound | Efficiency of the reagent in deactivating proteases in amphibian skin secretions | Proteoforms, % [1] | Intact, % [2] | Proteoforms, % [3] | Intact, % [4] | Proteoforms, % [5] | Intact, % [6] | Proteoforms, % [7] | Intact, % [8] | Proteoforms, % [9] | Intact, % [10] | Oxidized, % [1] | Oxidized, % [7] |
| --- | --- | --- | --- | --- | --- | --- | --- | --- | --- | --- | --- | --- | --- |
| O=S(=O)(F)Cc1ccccc1 [PMSF, phenylmethylsulfonyl fluoride, reference compound] | ineffective |  |  |  |  |  |  |  |  |  |  |  |  |
| GXLDSLKNFAKDAAGILLKKASCKLSGQC-OH (disulfide) [Brev 2Ra, Brevinin 2Ra, natural disulfide skin peptide of Pelophylax esculentus, brevinin 2 family, 29 aa] |  | 1.02% | 98.98% | did not degrade | 100% | 1.30% | 98.70% | 88.21% | 11.80% | 14.01% | 85.99% |  |  |
| CC[C@H](C)[C@H](NC(=O)[C@@H](N)C(C)C)C(=O)N1CCC[C@H]1C(=O)N[C@@H](Cc1ccccc1)C(=O)N[C@H](C(=O)N[C@@H](C)C(=O)N[C@@H](CO)C(=O)N[C@H](C(=O)N[C@@H](C)C(=O)N[C@@H](C)C(=O)N[C@@H](CCC(=O)O)C(=O)N[C@@H](CCSC)C(=O)N[C@@H](CCSC)C(=O)N[C@@H](CCC(N)=O)C(=O)N[C@@H](Cc1c[nH]cn1)C(=O)N[C@H](C(=O)N[C@@H](Cc1ccc(O)cc1)C(=O)N[C@H]1CSSC[C@@H](C(=O)O)NC(=O)[C@H](CCCNC(=N)N)NC(=O)[C@H](CCCNC(=N)N)NC(=O)[C@H](CO)NC(=O)[C@H](C)NC(=O)[C@H](C)NC1=O)C(C)C)C(C)C)C(C)C [Brev 1Ra, Brevinin 1Ra] (H-VIPFVASVAAEMMQHVYCAASRRC-OH; disulfide 18-24) |  | 0.75% | 93.51% | 0.60% | 98.27% | 0.30% | 99.51% |  | 77.80% | 0.53% | 99.47% |  |  |
| FFPAFLKVAAKVVPSXXCSITKKC-OH (disulfide) [Brev 1LE, Brevinin 1LE, natural disulfide skin peptide of Pelophylax esculentus, brevinin 1 family, 24 aa] |  | not a single proteolytic fragment was formed | 100% | not a single proteolytic fragment was formed | 100% | 1.63% | 98.37% | 92.73% | 7.27% | 89.74% | 10.26% |  |  |
| GXFSKXAGKKXKNLXISGXKSVGKEVGMDVVRTGIDIAGCKIKGEC-OH (disulfide) [Escul 1R, Esculentin 1R, natural disulfide skin peptide of Pelophylax esculentus, esculentin 1 family, 46 aa] |  | 27.69% | 64.86% | 22.15% | 77.85% | 15.59% | 84.41% | 97.33% | 2.42% | 99.26% | 0.74% | 7.45% | 0.25% |
| CO [Methanol, reference compound] | most efficient |  |  |  |  |  |  |  |  |  |  |  |  |
| GXWNTXKATGKSA ASNVAVTLLDKAKCK(LV)GEC-OH (disulfide) [Brev 2La, Brevinin 2La, natural disulfide skin peptide of Pelophylax esculentus, brevinin 2 family, 33 aa] |  | 69.02% | 30.98% | not observed at all | 100% | 4.98% | 95.02% |  |  | not observed at all |  |  |  |
| GXLSTLKNVAKTAGKGALQSLLNAASCKLSGQC-OH (disulfide) [Brev 2L, Brevinin 2L, natural disulfide skin peptide of Pelophylax esculentus, brevinin 2 family, 33 aa] |  | 1.21% | 98.79% | 4.66% | 95.34% | 4.74% | 95.26% | 99.64% | 0.36% | 80.51% | 19.49% |  |  |
| GIFSKLGRKKIKNLLISGLKNVGKEVGMDVVRTGIDIAGCKIKGEC (disulfide 40-46) [Escul 1, Esculentin 1] |  | 51.77% | 38.61% | 20.01% | 79.99% | 16.99% | 72.22% | 94.40% | 3.32% | 91.90% | 8.10% |  |  |
| GXLDSLKNLAKNAAQILLNKASCKLSGQC-OH (disulfide) [Brev 2Rd, Brevinin 2Rd, natural disulfide skin peptide of Pelophylax esculentus, brevinin 2 family, 29 aa] |  | 0.39% | 99.61% | did not degrade | 100% | 2.23% | 97.77% | 98.45% | 1.55% | 79.16% | 20.84% |  |  |
| CC[C@H](C)[C@H](NC(=O)[C@H](CC(N)=O)NC(=O)[C@@H](NC(=O)[C@H](C)N)C(C)C)C(=O)N1CCC[C@H]1C(=O)N[C@@H](Cc1ccccc1)C(=O)N[C@@H](CCCCN)C(=O)N[C@H](C(=O)N[C@@H](CCCCN)C(=O)N[C@@H](Cc1ccccc1)C(=O)N[C@@H](CCCNC(=N)N)C(=O)N[C@H]1CSSC[C@@H](C(=O)O)NC(=O)[C@H](Cc2ccccc2)NC(=O)[C@H](C)NC(=O)[C@H](C)NC(=O)[C@H](CCCCN)NC1=O)C(C)C [Ranat 2R, Ranatuerin 2R] (H-AVNIPFKVKFRCKAAFC-OH; disulfide 12-17) |  | 14.79% | 85.21% | proteolytic fragments were not recorded | 100% | 34.99% | 65.01% | proteolytic fragments were not recorded |  | proteolytic fragments were not recorded | 100% |  |  |
